# In patent publication US20220040150A1, “I[…] ADMI[…] FOR DMT-ASSISTED PSYCHOTHERAPY” (Universitatsspital Basel, priority 2020, published 2022):
# Where two headings read alike, the source gives them in different places.
# Columns and labels:
# [1] = Plasma levels of DMT after intravenous bolus plus continuous infusion (Gouzoulis-Mayfrank et al., 2005); format: in vivo; conditions: human
# Description: Previous research already documented the rapid action of DMT and its safety (Gouzoulis-Mayfrank et al., 2005). A study included 15 healthy volunteers. DMT was given at either a low or a high dose. The low dose consisted of a bolus injection of 0.2 mg/kg (˜15 mg) over 5 minutes followed by a break of one minute, followed by a continuous infusion with 0.015 mg/kg (˜1 mg)/min over 84 minutes. The high dose consisted of a bolus injection of 0.3 mg/kg (˜23 mg) and a continuous infusion with 0.02 mg/kg (˜1.5 mg)/min. The two doses were administered on the same day with a two-hour break between the end of the first and the beginning of the second administration in a single-blind design. Subjective effects were assessed and plasma concentrations of DMT were determined during the perfusion and thereafter. Effects of both doses included vivid alterations of visual, auditory, and tactile perception. […] Most subjects tended to report their experiences during the experiment spontaneously, and they were interested in interpersonal interactions. Mood varied from anxious and tense to expansive and euphoric with mostly vivid verbal, mimic, and psychomotor expression of emotions. Ego-control and insight into the experimental nature of the experience were preserved at the low dose. […]
# [2] = DMT plasma concentrations after intravenous bolus, pilot study (Timmermann et al., 2019); format: in vivo; conditions: human, consistent with measurements of Timmermann 2019 and Strassman 1994, may represent redistribution, read-out: approximate elimination half-life
# Description: A more recent pilot study also assessed plasma concentrations of DMT after intravenous bolus administration of 7-20 mg of DMT in a small number of subjects (Timmermann et al., 2019). DMT blood concentrations were approximately 56 ng/mL 2 minutes after administration of 14 mg (corresponding to approximately 0.2 mg/kg) (Timmermann et al., 2019) in line with the aforementioned data by Strassman (Strassman et al., 1994). The measurements from both studies are consistent with an approximate elimination half-life of 5-10 minutes. However, this may represent rapid redistribution and metabolism and may therefore be shorter than the true elimination half-life (see above). The study only used a bolus, so it is different from the present invention. The above descriptions illustrate that there is limited information on the effects of intravenous DMT administration. However, no study has validly determined the elimination half-life of DMT and other pharmacokinetic parameters and this will be done within the current invention to have better and rational basis on dosing.
# [3] = test system: healthy subjects with previous hallucinogen experience; conditions: cited from earlier work
# [4] = biological target: serotonin 5-HT2A receptor (Homo sapiens, UniProt P28223); conditions: similar to LSD and psilocybin; cited from earlier work
# serotonin 5-HT2A receptor, sequence (P28223 whole entry): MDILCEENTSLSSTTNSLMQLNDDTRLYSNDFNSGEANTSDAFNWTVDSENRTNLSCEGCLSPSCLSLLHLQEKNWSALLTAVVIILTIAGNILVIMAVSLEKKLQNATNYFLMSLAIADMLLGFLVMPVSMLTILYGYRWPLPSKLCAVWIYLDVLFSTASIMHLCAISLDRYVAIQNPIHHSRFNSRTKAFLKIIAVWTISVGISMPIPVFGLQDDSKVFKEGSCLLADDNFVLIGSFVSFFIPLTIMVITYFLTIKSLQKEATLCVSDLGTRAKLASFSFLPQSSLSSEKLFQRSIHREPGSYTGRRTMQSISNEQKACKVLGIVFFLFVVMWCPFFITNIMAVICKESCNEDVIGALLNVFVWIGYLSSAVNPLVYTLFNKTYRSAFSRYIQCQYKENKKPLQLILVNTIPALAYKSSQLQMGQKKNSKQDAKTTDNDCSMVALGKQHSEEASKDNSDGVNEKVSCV
# [5] = biological target: serotonin transporter (Homo sapiens, UniProt P31645); conditions: in contrast to LSD; cited from earlier work
# serotonin transporter, sequence (P31645 whole entry): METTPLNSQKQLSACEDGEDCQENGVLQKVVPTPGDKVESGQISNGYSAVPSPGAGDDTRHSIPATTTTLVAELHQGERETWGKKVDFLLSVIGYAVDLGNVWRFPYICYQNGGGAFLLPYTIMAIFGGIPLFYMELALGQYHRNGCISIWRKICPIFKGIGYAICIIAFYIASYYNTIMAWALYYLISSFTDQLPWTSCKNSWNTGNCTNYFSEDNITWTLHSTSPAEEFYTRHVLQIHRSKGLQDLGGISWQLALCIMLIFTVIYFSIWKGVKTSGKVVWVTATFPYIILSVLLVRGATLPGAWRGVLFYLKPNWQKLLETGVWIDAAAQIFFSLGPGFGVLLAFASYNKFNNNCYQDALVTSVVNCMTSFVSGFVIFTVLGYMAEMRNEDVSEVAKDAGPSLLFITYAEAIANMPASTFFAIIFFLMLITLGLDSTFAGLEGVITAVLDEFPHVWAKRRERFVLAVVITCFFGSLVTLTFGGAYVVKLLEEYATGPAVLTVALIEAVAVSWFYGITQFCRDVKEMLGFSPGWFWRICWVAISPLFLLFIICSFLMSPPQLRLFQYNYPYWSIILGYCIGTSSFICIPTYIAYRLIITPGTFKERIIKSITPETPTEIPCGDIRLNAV
# [6] = cited from earlier work
# [7] = cited from earlier work; remark: listed apart in the source
# [8] = test system: healthy volunteers; conditions: cited from earlier work
# [9] = 0.4 mg/kg iv bolus, cited from earlier work
# [10] = 2 minutes after iv bolus of 14 mg (approximately 0.2 mg/kg); cited from earlier work
# [11] = 0.3 mg/kg iv, cited from earlier work
# [12] = 25 mg (0.3 mg/kg) bolus over 30 seconds; cited from earlier work
# [13] = test system: healthy subjects; experiment: Example 1 clinical study: subjective effects rating over time
# [14] = perfusion with placebo bolus, two subjects
structure (smiles),measurement,setting,value
"CN(C)CCc1c[nH]c2ccccc12 [DMT, N,N-dimethyltryptamine]",half-life,"[1]; in line with subjective effects and Strassman data, read-out: true half-life (likely)",~10 min
same,half-life,"[1]; indicated by the very crude and possibly invalid plasma data, read-out: elimination half-life",~30 min
same,half-life,[2],5 to 10 min
same,threshold dose for hallucinogenic effects,[3]; iv bolus,0.2 mg/kg
same,time to peak of effects after injection,[3]; iv bolus,≤ 2 min
same,time within which effects resolved,[3]; iv bolus,20 to 30 min
same,hallucinogenic effect,"[3]; lower doses (0.05, 0.1 mg/kg) iv bolus",not hallucinogenic
same,hallucinogenic effect,[3]; two higher doses of 0.2 and 0.4 mg/kg iv bolus,fully hallucinogenic
same,interaction with the serotonin 5-HT2A receptor,[4],interacts
same,interaction with the serotonin transporter,[5],interacts
same,duration of action,[6]; administered parenterally,less than 20 min
same,activity when administered orally,"[6]; oral, without MAO inhibition",inactive
same,Plasma levels of DMT,"[7]; 10 minutes before start of second dose, 110 minutes after stopping the first infusion",5 ± 3 ng/mL
same,Mean plasma levels of DMT,"[7]; high dose: bolus 0.3 mg/kg, then infusion 0.02 mg/kg/min",60 ± 28 ng/mL
same,Mean plasma levels of DMT,"[7]; low dose: bolus 0.2 mg/kg over 5 minutes, then infusion 0.015 mg/kg/min over 84 minutes",43 ± 26 ng/mL
same,time within which subjective effects subsided,[8]; after stopping infusion,≤ 20 min
same,subjects who stopped after the first DMT dose due to adverse responses,[8]; among the 15 subjects,3
same,persons reporting visual hallucinations,[8]; high dose,all participants
same,time for adverse effects to vanish from stopping the infusion,[8]; in vivo,within a few minutes
same,persons reporting visual hallucinations,"[8]; low dose, 15 healthy volunteers",seven
same,lasting complaints at interviews,[8]; seven days and 12 months after the experiments,no lasting complaints
same,subjects reporting tiredness and headache in the evening of the experiment,[8]; subjects who received DMT,10 out of 13
same,Blood levels of DMT base,[9]; 2 minutes,~90 ng/mL
same,Blood levels of DMT base,[9]; 5 minutes,~42 ng/mL
same,Blood levels of DMT base,[9]; 10 minutes,~28 ng/mL
same,Blood levels of DMT base,[9]; 15 minutes,~17 ng/mL
same,Blood levels of DMT base,[9]; 30 minutes,~5 ng/mL
same,DMT blood concentrations,[10],approximately 56 ng/mL
same,blood DMT levels,[11]; after 2 minutes,~70 ng/mL
same,blood DMT levels,[11]; after 5 minutes,~50 ng/mL
same,blood DMT levels,[11]; after 10 minutes,~30 ng/mL
same,blood DMT levels,[11]; after 15 minutes,~18 ng/mL
same,effect site concentration (simulated),[12],over 100 ng/mL
same,initial plasma concentration spike (simulated),[12],over 200 ng/mL
same,duration of the psychedelic state,[13]; 90 minutes perfusion,approximately 90 minutes
same,time to new steady state after starting the perfusion,[13]; available data from Example 1,approximately 20 minutes
same,ratings of bad drug effects and anxiety,"[13]; bolus and perfusion, 2-5 minutes after the bolus",small increases
same,ratings of any drug effects,"[13]; bolus and perfusion, mean in three subjects",maximal within seconds
same,ratings of good drug effects,"[13]; bolus and perfusion, three subjects",maximal immediately after the DMT bolus administration and up to 30 minutes
same,bad drug effects and anxiety ratings,[13]; perfusion with placebo bolus,no bad drug effects and no anxiety
same,time over which good drug effects steadily increased after start of the perfusion,[13]; perfusion with placebo bolus,30 min
same,time to disappearance of good drug effects after stopping the perfusion,[13]; perfusion with placebo bolus,less than 10 minutes
same,description of the DMT experience,"[13]; perfusion with placebo bolus, dose used in the example",overall similar to LSD at a moderate dose of 0.05-0.1 mg LSD base
same,time over which any drug effects steadily increased after starting the perfusion,[13]; [14],30 min
same,time to disappearance of effect after perfusion ended at 90 minutes,[13]; [14],less than 10 minutes
